# Measurements from paper PMC5790609 (Journal of neuroimmune pharmacology : the official journal …, 2017).
# What was measured:
# [1] = system: TSPO (C/T rs6971 genotype); assay: [3H]-DPA-713 dissociation kinetics, platelet lysates, C/T genotype; assay type: binding, human; conditions: for effect on rate of dissociation of [3H]-DPA-713 vs. excess DPA-713: PK11195 5 μM, cholesterol 1.2 μM
# [2] = target: TSPO (T/T rs6971 genotype) (Homo sapiens, UniProt P30536); assay: [3H]-DPA-713 dissociation kinetics, platelet lysates, T/T genotype; assay type: binding; conditions: PK11195 5 μM, cholesterol 1.2 μM
# Sequence of TSPO (T/T rs6971 genotype) (P30536 2-169): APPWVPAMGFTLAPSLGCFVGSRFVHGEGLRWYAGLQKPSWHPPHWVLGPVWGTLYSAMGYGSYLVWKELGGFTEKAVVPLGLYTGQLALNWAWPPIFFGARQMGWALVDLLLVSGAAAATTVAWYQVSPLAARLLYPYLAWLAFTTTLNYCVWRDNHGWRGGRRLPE
# [3] = target: TSPO (C/C rs6971 genotype) (Homo sapiens, UniProt P30536); assay: [3H]-DPA-713 dissociation kinetics, platelet lysates, C/C genotype; assay type: binding; conditions: PK11195 5 μM, cholesterol 1.2 μM
# Sequence of TSPO (C/C rs6971 genotype) (P30536 whole entry): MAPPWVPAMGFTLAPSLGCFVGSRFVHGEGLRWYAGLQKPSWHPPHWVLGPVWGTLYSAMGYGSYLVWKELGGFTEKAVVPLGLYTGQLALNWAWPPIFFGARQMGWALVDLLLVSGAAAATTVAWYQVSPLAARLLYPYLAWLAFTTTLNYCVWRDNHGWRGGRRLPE
# [4] = ref Vivash and O'Brien 2016; cited from earlier work
Structure (SMILES),dissociation rates of [3H]-DPA-713 with 2 vs. 12 μM DPA-713 [1],effect on rate of dissociation of [3H]-DPA-713 vs. excess DPA-713 [2],effect on rate of dissociation of [3H]-DPA-713 vs. excess DPA-713 [3],effect on rate of dissociation of [3H]-DPA-713 vs. excess DPA-713 [1],non-specific plasma protein binding [4]
CCN(CC)C(=O)Cc1c(-c2ccc(OC)cc2)nn2c(C)cc(C)nc12 [DPA-713],the same,,,,
CCC(C)N(C)C(=O)c1cc2ccccc2c(-c2ccccc2Cl)n1 (centres unmarked) [PK11195],,accelerated,the same,the same,high
CC(C)CCC[C@@H](C)[C@H]1CC[C@H]2[C@@H]3CC=C4C[C@@H](O)CC[C@]4(C)[C@H]3CC[C@]12C [cholesterol],,accelerated,the same,the same,
